Measured values from US10501440B2, “Heteroarylcarboxamide derivatives as plasma kallikrein inhibitors” (Boehringer Ingelheim International GmbH, priority 2017, dated 2019).
Read-outs that look alike come from different tables or passages of the source.

Experiments:
Assay type in all cases: biochemical
KLKB1 [1] = target: T1, KLKB1 (Homo sapiens (Human), UniProt P03952); experiment: Inhibition of KLKB1 (Ki), kinetic assay; conditions: 24° C., 0.25 mM H-Pro-Phe-Arg-AMC; IC50 corrected for KM of substrate
T1 sequence (P03952 391-638 limits assumed): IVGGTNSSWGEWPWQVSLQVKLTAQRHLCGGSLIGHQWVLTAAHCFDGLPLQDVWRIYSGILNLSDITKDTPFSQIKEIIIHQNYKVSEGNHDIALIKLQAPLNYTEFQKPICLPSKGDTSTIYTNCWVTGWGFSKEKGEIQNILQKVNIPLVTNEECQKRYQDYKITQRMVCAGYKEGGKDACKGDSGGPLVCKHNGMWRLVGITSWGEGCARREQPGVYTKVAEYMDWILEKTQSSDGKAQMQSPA
T1 sequence (P03952 20-390 partner limits assumed): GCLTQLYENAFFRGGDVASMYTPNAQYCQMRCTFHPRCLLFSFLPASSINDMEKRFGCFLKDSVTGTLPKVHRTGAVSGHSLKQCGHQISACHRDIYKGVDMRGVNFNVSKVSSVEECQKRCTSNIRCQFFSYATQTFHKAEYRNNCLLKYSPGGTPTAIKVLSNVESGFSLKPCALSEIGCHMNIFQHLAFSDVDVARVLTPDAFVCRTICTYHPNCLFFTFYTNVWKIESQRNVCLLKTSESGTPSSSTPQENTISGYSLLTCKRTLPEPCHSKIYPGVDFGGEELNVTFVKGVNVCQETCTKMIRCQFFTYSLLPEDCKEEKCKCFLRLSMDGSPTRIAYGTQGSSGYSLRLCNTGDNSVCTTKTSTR
Protocol: (§1) The ability of compounds of formula (I) to inhibit plasma kallikrein (KLKB1), Factor XIIa (FXIIa), Factor XIa (FXIa), Factor Xa (FXa), Factor IIa (alpha-thrombin; FIIa), plasmin, trypsin, tissue kallikrein 1 (KLK1), Factor Vila (FVIIa), or FVIIa complexed with Tissue Factor, phospholipids and CaCl2 (FVIIa/TF/PL/CaCl2) was determined using the following biochemical assays in assay buffer (100 mM Tris, 150 mM NaCL, adjusted to a pH of 7.8 with HCl, and containing 0.1% (w/v) BSA and 0.05% (v/v) Tween20) in the presence of 1% (v/v) DMSO:
Evaluation of the Inhibition of KLKB1 (Ki)
Measurements were performed in a kinetic interval every 2nd minute for 16 min using a Spectramax M5 (Molecular Devices) with the following settings of the wavelength excitation of 350 nm and wavelength emission of 450 nm.
(§2) The number of the compound corresponds to the number of the Example in the experimental section.
Calculation of pIC50 and Pki Values
The pIC50 values were then fitted using a four-parametric fitting procedure using GraphPad Prism (version 6; GraphPad Software, Inc.).
Where the IC50 is in molar and the KM value in mM.

KLKB1 [2] = target: T1, KLKB1; experiment: Inhibition of KLKB1 in kaolin activated human PPP; conditions: for IC50: read-out: IC50
Protocol: Evaluation of the Inhibition of KLKB1 in Kaolin Activated Human PPP
Platelet poor plasma (PPP) obtained from human wholeblood, anticoagulated with Na-Citrat, was incubated with various concentrations of the test compound together with either 25, 75, 250, or 750 μg/mL kaolin in assay buffer for 20 min at 37° C. such that for each kaolin dose used a concentration response was obtained for the test compound.
as §2

KLKB1 [3] = target: T1, KLKB1; experiment: Inhibition of KLKB1 using an endpoint assay (fluorogenic substrate H-Pro-Phe-Arg-AMC); conditions: endpoint assay, 1 h at room temperature, 0.10 μM H-Pro-Phe-Arg-AMC; read-out: IC50
Protocol: as §1
Evaluation of the Inhibition of KLKB1 Using an Endpoint Assay
Human KLKB1 (0.01 U/mL; Enzyme Research Laboratories) or rat KLKB1 (0.625 nM; produced in-house) was incubated for 1 h at room temperature with 0.10 μM fluorogenic substrate H-Pro-Phe-Arg-AMC (11295 from Bachem) and various concentrations of the test compound in assay buffer. Subsequently, PPACK 11 (Calbiochem) was added as a stop solution to achieve a final concentration of 1 μM and fluorescence was measured using an Envision Reader (PerkinElmer) with the wavelength excitation setting of 355 nm and the wavelength emission setting of 460 nm.
as §2

KLKB1 [4] = target: T1, KLKB1; experiment: Inhibition of human KLKB1 in dextran sulfate activated human PPP; conditions: human platelet poor plasma (EDTA) activated with 12.5 μg/mL dextransulfate, 24° C.; read-out: IC50
Protocol: Evaluation of the Inhibition of Human KLKB1 in Dextran Sulfate Activated Human PPP
Platelet poor plasma (PPP) obtained from human wholeblood, anticoagulated with EDTA, was activated with 12.5 μg/mL dextransulfate for 7 min on ice. The activated PPP was incubated with various concentrations of the test compound in assay buffer. Afterwards the mixture was incubated at 24° C. with 0.25 mM fluorogenic substrate H-Pro-Phe-Arg-AMC (11295 from Bachem) and measurements were performed in a kinetic interval every 2nd minute for 16 min using a Spectramax M5 (Molecular Devices) with the following settings of the wavelength excitation of 350 nm and wavelength emission of 450 nm.
as §2

[5] = human platelet poor plasma (Na-Citrat), 25, 75, 250 or 750 μg/mL kaolin, global fit
[6] = human platelet poor plasma (Na-Citrat), 25, 75, 250 or 750 μg/mL kaolin, global fit, read-out: IC90

SMILES	Ki (KLKB1 [1])	IC90 (KLKB1 [2])	IC50 (KLKB1 [2]; [5])	IC50 (KLKB1 [3])	IC50 (KLKB1 [4])	IC90 (KLKB1 [2]; [6])
Cc1cc2c(c(N)n1)CC[C@H]2NC(=O)c1cnn(Cc2cnc(N3CC4CC4C3)nc2C)c1 (stereo partly drawn) [Example 17, N-[(5R)-1-Amino-3-methyl-5H,6H,7H-cyclopenta[c]pyridin-5-yl]-1-[(2-{3-azabicyclo[3.1.0]hexan-3-yl}-4-methylpyrimidin-5-yl)methyl]-1H-pyrazole-4-carboxamide]	0.5 nM	511 nM	52.2 nM	1 nM		
Cc1nc(N2C[C@@H]3[C@H](CO)[C@@H]3C2)ccc1Cn1cc(C(=O)N[C@@H]2CCc3c2ccnc3N)cn1 [Example 12]	0.6 nM			1.9 nM	46.7 nM	
Cc1nc(N2CC3CC3C2)ncc1Cn1cc(C(=O)N[C@@H]2CCc3c2ccnc3N)nn1 (stereo partly drawn) [Example 16, N-[(5R)-1-Amino-5H,6H,7H-cyclopenta[c]pyridin-5-yl]-1-[(2-{3-azabicyclo[3.1.0]hexan-3-yl}-4-methylpyrimidin-5-yl)methyl]-1H-1,2,3-triazole-4-carboxamide]	2.2 nM			5.3 nM		
Cc1nc(N2C[C@@H]3[C@H](C#N)[C@@H]3C2)ccc1Cn1cc(C(=O)N[C@@H]2CCc3c2ccnc3N)cn1 [Example 13, N-[(5R)-1-Amino-5H,6H,7H-cyclopenta[c]pyridin-5-yl]-1-({6-[(1R,5S,6R)-6-cyano-3-azabicyclo[3.1.0]hexan-3-yl]-2-methylpyridin-3-yl}methyl)-1H-pyrazole-4-carboxamide]	0.3 nM			0.5 nM	32.3 nM	
COc1nn(Cc2ccc(N3CC4CC4C3)nc2C)cc1C(=O)N[C@@H]1CCc2c1ccnc2N (stereo partly drawn) [Example 22, N-[(5R)-1-Amino-5H,6H,7H-cyclopenta[c]pyridin-5-yl]-1-[(6-{3-azabicyclo[3.1.0]hexan-3-yl}-2-methylpyridin-3-yl)methyl]-3-methoxy-1H-pyrazole-4-carboxamide]				1.1 nM		
Cc1nc(N2CC3C(C2)C3(F)F)ccc1Cn1cc(C(=O)N[C@@H]2CCc3c2ccnc3N)c(C(F)(F)F)n1 (stereo partly drawn) [Example 7]	1.9 nM		17.9 nM	1.1 nM		199 nM
Cc1nc(N2CC3CC3C2)ccc1Cn1cc(C(=O)N[C@@H]2CCc3c2ccnc3N)nn1 (stereo partly drawn) [Example 5]	0.4 nM			0.8 nM	61.2 nM	
Cc1cc2c(c(N)n1)CC[C@H]2NC(=O)c1cnn(Cc2ccc(N3CC4C(C3)C4(F)F)nc2C)c1 (stereo partly drawn) [Example 10, N-[(5R)-1-Amino-3-methyl-5H,6H,7H-cyclopenta[c]pyridin-5-yl]-1-[(6-{6,6-difluoro-3-azabicyclo[3.1.0]hexan-3-yl}-2-methylpyridin-3-yl)methyl]-1H-pyrazole-4-carboxamide]	0.4 nM	96.2 nM	16.2 nM	0.4 nM		
Cc1cc2c(c(N)n1)CC[C@H]2NC(=O)c1cn(Cc2cnc(N3CC4CC4C3)nc2C)nn1 (stereo partly drawn) [Example 18, N-[(5R)-1-Amino-3-methyl-5H,6H,7H-cyclopenta[c]pyridin-5-yl]-1-[(2-{3-azabicyclo[3.1.0]hexan-3-yl}-4-methylpyrimidin-5-yl)methyl]-1H-1,2,3-triazole-4-carboxamide]	0.5 nM			1.2 nM		
Cc1nc(N2CC3CC3C2)ccc1Cn1cc(C(=O)N[C@@H]2CCc3c2ccnc3N)c(C(C)C)n1 (stereo partly drawn) [Example 6]				1 nM		
Cc1nc(N2CC3CC3C2)ncc1Cn1cc(C(=O)N[C@@H]2CCc3c2ccnc3N)cn1 (stereo partly drawn) [Example 11]	1.5 nM		23.9 nM	1.7 nM	50.3 nM	232 nM
Cc1nc(N2CC3CC3C2)ccc1Cn1cc(C(=O)N[C@@H]2CCc3c2ccnc3N)c(C(F)(F)F)n1 (stereo partly drawn) [Example 4]	0.4 nM		18 nM	0.8 nM		446 nM
Cc1nc(N2CC3C(C2)C3(F)F)ncc1Cn1cc(C(=O)N[C@@H]2CCc3c2ccnc3N)nn1 (stereo partly drawn) [Example 20, N-[(5R)-1-Amino-5H,6H,7H-cyclopenta[c]pyridin-5-yl]-1-[(2-{6,6-difluoro-3-azabicyclo[3.1.0]hexan-3-yl}-4-methylpyrimidin-5-yl)methyl]-1H-1,2,3-triazole-4-carboxamide]				3.9 nM		
Cc1nc(N2CC3(CC3)C2)ccc1Cn1cc(C(=O)N[C@@H]2CCc3c2ccnc3N)cn1 [Example 26, 1-[6-(5-Aza-spiro[2.3]hex-5-yl)-2-methyl-pyridin-3-ylmethyl]-1H-pyrazole-4-carboxylic acid ((R)-1-amino-6,7-dihydro-5H-[2]pyrindin-5-yl)-amide]				1.2 nM		
Cc1nc(N2C[C@@H]3[C@H](C)[C@@H]3C2)ccc1Cn1cc(C(=O)N[C@@H]2CCc3c2ccnc3N)cn1 [Example 24, 1-[2-Methyl-6-((1S,5R,6R)-6-methyl-3-aza-bicyclo[3.1.0]hex-3-yl)-pyridin-3-ylmethyl]-1H-pyrazole-4-carboxylic acid ((R)-1-amino-6,7-dihydro-5H-[2]pyrindin-5-yl)-amide]				0.6 nM		
Cc1nc(N2CC3(CCC3)C2)ccc1Cn1cc(C(=O)N[C@@H]2CCc3c2ccnc3N)cn1 [Example 25, 1-[6-(2-Aza-spiro[3.3]hept-2-yl)-2-methyl-pyridin-3-ylmethyl]-1H-pyrazole-4-carboxylic acid ((R)-1-amino-6,7-dihydro-5H-[2]pyrindin-5-yl)-amide]				2.1 nM		
Cc1cc2c(c(N)n1)CC[C@H]2NC(=O)c1cnn(Cc2ccc(N3CC4CC4C3)nc2C)c1 (stereo partly drawn) [Example 2]	0.3 nM		16.6 nM	0.3 nM		134 nM
Cc1nc(N2CC3CC3C2)ccc1Cn1cc(C(=O)N[C@@H]2CCc3c2ccnc3N)c(C)n1 (stereo partly drawn) [Example 3]	0.3 nM		20.1 nM	0.7 nM		238 nM
Cc1nc(N2CCC3(CC3)C2)ccc1Cn1cc(C(=O)N[C@@H]2CCc3c2ccnc3N)cn1 [Example 14]	1.1 nM			2 nM	80.3 nM	
Cc1nc(N2CC3C(C2)C3(F)F)ccc1Cn1cc(C(=O)N[C@@H]2CCc3c2ccnc3N)nn1 (stereo partly drawn) [Example 8]				5.5 nM		
Cc1cc2c(c(N)n1)CC[C@H]2NC(=O)c1cn(Cc2ccc(N3CC4CC4C3)nc2C)nc1C (stereo partly drawn) [Example 15, N-[(5R)-1-Amino-3-methyl-5H,6H,7H-cyclopenta[c]pyridin-5-yl]-1-[(6-{3-azabicyclo[3.1.0]hexan-3-yl}-2-methylpyridin-3-yl)methyl]-3-methyl-1H-pyrazole-4-carboxamide]	0.4 nM			0.5 nM		
Cc1nc(N2CC3C(C2)C3(C)C)ccc1Cn1cc(C(=O)N[C@@H]2CCc3c2ccnc3N)cn1 (stereo partly drawn) [Example 23, N-[(5R)-1-Amino-5H,6H,7H-cyclopenta[c]pyridin-5-yl]-1-[(6-{6,6-dimethyl-3-azabicyclo[3.1.0]hexan-3-yl}-2-methylpyridin-3-yl)methyl]-1H-pyrazole-4-carboxamide]				9.9 nM		
Cc1nc(N2CC3CC3C2)ccc1Cn1cc(C(=O)N[C@@H]2CCc3c2ccnc3N)c(C(F)F)n1 (stereo partly drawn) [Example 19, N-[(5R)-1-Amino-5H,6H,7H-cyclopenta[c]pyridin-5-yl]-1-[(6-{3-azabicyclo[3.1.0]hexan-3-yl}-2-methylpyridin-3-yl)methyl]-3-(difluoromethyl)-1H-pyrazole-4-carboxamide]				1 nM		
Cc1cc2c(c(N)n1)CC[C@H]2NC(=O)c1cn(Cc2cnc(N3CC4C(C3)C4(F)F)nc2C)nn1 (stereo partly drawn) [Example 21, N-[(5R)-1-Amino-3-methyl-5H,6H,7H-cyclopenta[c]pyridin-5-yl]-1-[(2-{6,6-difluoro-3-azabicyclo[3.1.0]hexan-3-yl}-4-methylpyrimidin-5-yl)methyl]-1H-1,2,3-triazole-4-carboxamide]				1.4 nM		
